Experiments:
[1] = tested on: Normal Organoid from normal adjacent tissue of ovarian cancer patients; assay: PDO drug sensitivity and resistance testing (CellTiter-Glo), ovarian normal adjacent tissue organoids; format: cell-based; settings: Homo sapiens
Procedure: (§1) Patient-derived tumor organoid was dissociated to single cells after seven days in culture. Epithelial Cells (from tumor and adjacent normal tissues) in combination with patient-derived isogenic adipose-derived Mesenchymal Stem Cells: iECs: MSCs (3:1:1) were seeded at a density of 5000 cells per well in 96-well clear bottom microplates. Multicellular organoids were allowed to grow for seven days. Breast and ovarian organoids were imaged every day and fed every alternate day with aforementioned Breast organoid medium and Ovarian organoid medium respectively. […] Organoids were subsequently incubated for […]; DMSO only- vehicle control and media only- negative control was used to set the baseline. After 0, 1, 7, 14 and 21 days ATP levels were measured with the CellTiter-Glo (Promega, Wisconsin, USA). All screenings were performed in triplicates. Data were analyzed using GraphPad Prism 6. Drug dose–response curves were visualized using […] analysis [setting: log (inhibitor) versus response, least-squares (ordinary) fit; top constraint 100%]. Concentrations where 50% cell viability (IC50-value) was reached were interpolated. The area under the curve (AUC) was approximated between the lowest and highest concentrations screened in the actual assay with the trapezoid rule for numerical integration. The dose–response curves were plotted as the percentage of the cell viability against the logarithm of drug concentrations in µM and were fitted to estimate the IC50.
(§2) We developed a protocol to culture and expand organoids from tissues collected from ovarian cancer patients. […] We performed drug sensitivity and resistance test (DSRT) using 2 FDA-approved commonly used therapeutic drugs paclitaxel and doxorubicin. Depending on the properties of the individual drugs, the concentrations ranged from 0.001 µM to 1000 µM (Fig. 6).
(§3) Following seven days incubation, organoid cultures were manually inspected using a phase-contrast microscope to check cell health and morphology prior to the addition of drugs. CellTiter-Glo® 2.0 determines the number of viable cells in a well, based on the quantification of ATP present, an indicator of metabolically viable cells. Total cell count was measured by CellTiter-Glo® 2.0, which causes cell lysis and produces a luminescence signal proportional to the amount of ATP present. Following completion of the above quality metrics, the data was normalized or the raw intensity data was used for curve-fitting. • Data normalization: Normalization was completed using the following calculation: (Raw intensity signal- Mean of positive control/ Mean of negative control-Mean positive control)

[2] = tested on: Normal Organoid from normal adjacent tissue of breast cancer patients; assay: PDO drug sensitivity and resistance testing (CellTiter-Glo), breast normal adjacent tissue organoids; format: cell-based; settings: Homo sapiens
Procedure: as §1
(§4) We investigated BC organoids in response to standard medications in order to assess their potential as in vitro disease models. Towards this, PDOs were treated with doxorubicin and paclitaxel (commonly used chemotherapeutic drugs).
as §3

[3] = tested on: patient-derived breast cancer organoids (Tumor Organoid); assay: PDO drug sensitivity and resistance testing (CellTiter-Glo), breast tumor organoids; format: cell-based, human; settings: for IC50: Homo sapiens
Procedure: as §1, §4, §3

[4] = tested on: patient-derived primary ovarian cancer organoids (Tumor Organoid); assay: PDO drug sensitivity and resistance testing (CellTiter-Glo), ovarian tumor organoids; format: cell-based, human; settings: for IC50: Homo sapiens
Procedure: as §1, §2, §3

[5] = tested on: iPSCs-derived cardiomyocytes; assay: Calcium transient assay (cardiotoxicity); format: cell-based, human; settings: 1 µM; cardiomyocytes from healthy donor, breast cancer and ovarian cancer patient
Procedure: To initiate cardiac differentiation, 10,000 cells/cm^2 of passage 11–20 single cell suspension of iPSCs were seeded on matrigel coated plates in mTeSR™1 media and incubated overnight to obtain 95% confluent culture. Once cells reached > 95% confluence, RPMI 1648 medium (Gibco)/B-27 Supplement Minus Insulin (Gibco)/ 100 ng/ml Activin A (Gibco) + Matrigel (Corning) + […] CHIR9902 (Stem Cell Technologies) was added. CHIR9902 only for 24 h. Day 02–04: RPMI 1648 medium (Gibco)/B-27 Supplement Minus Insulin (Gibco)/ activin A (Gibco) (100 ng/ml) and BMP4 (Gibco) (10 ng/ml) and bFGF. Day 05–06: RPMI 1640 (with L-glutamine) with 2% B27 minus insulin supplement, 1 µl IWR-1 (5 µM final). Day 07–09: RPMI 1640 with L-Glutamine (Gibco) with 2% B27 with insulin supplement (Gibco). Day10: At day 10 post-differentiation, changed the medium to RPMI 1648-low glucose medium (Gibco) and maintained the cells in this medium for 3 days (until day 13). Day 13: Returned cells to RPMI/B27 medium-with insulin (Gibco). At day 14, changed the medium back to RPMI-low glucose medium (Gibco) for a second glucose deprivation cycle. Cultured the cells in this low glucose state for 3 more days. Most of the non-cardiomyocytes will die in this low-glucose culture condition. At day 17, changed the medium to 2 ml of RPMI/B27 medium with insulin. The remaining cells will be highly purified cardiomyocytes. […]

SMILES: COc1cccc2c1C(=O)c1c(O)c3c(c(O)c1C2=O)C[C@@](O)(C(=O)CO)C[C@@H]3O[C@H]1C[C@H](N)[C@H](O)[C@H](C)O1 [Doxorubicin]
- IC50 ([1]; 168 h, Ovarian Cancer Sample 1, Normal Organoid, day 7, CTG): 96.2 µM
- IC50 ([1]; 168 h, Ovarian Cancer Sample 2, Normal Organoid, day 7, CTG): 2340 µM
- IC50 ([1]; 168 h, Ovarian Cancer Sample 3, Normal Organoid, day 7, CTG): 102 µM
- IC50 ([1]; 336 h, Ovarian Cancer Sample 1, Normal Organoid, day 14, CTG): 8.92 µM
- IC50 ([1]; 336 h, Ovarian Cancer Sample 2, Normal Organoid, day 14, CTG): 2250 µM
- IC50 ([1]; 336 h, Ovarian Cancer Sample 3, Normal Organoid, day 14, CTG): 8.89 µM
- IC50 ([1]; 504 h, Ovarian Cancer Sample 1, Normal Organoid, day 21, CTG): 0.0119 µM
- IC50 ([1]; 504 h, Ovarian Cancer Sample 2, Normal Organoid, day 21, CTG): 1160 µM
- IC50 ([1]; 504 h, Ovarian Cancer Sample 3, Normal Organoid, day 21, CTG): 9.29 µM
- IC50 ([2]; 168 h, Breast Cancer Sample 1, Normal Organoid, day 7, CTG): 96.6 µM
- IC50 ([2]; 168 h, Breast Cancer Sample 2, Normal Organoid, day 7, CTG): 859 µM
- IC50 ([2]; 168 h, Breast Cancer Sample 3, Normal Organoid, day 7, CTG): 955 µM
- IC50 ([2]; 336 h, Breast Cancer Sample 1, Normal Organoid, day 14, CTG): 92 µM
- IC50 ([2]; 336 h, Breast Cancer Sample 2, Normal Organoid, day 14, CTG): 1010 µM
- IC50 ([2]; 336 h, Breast Cancer Sample 3, Normal Organoid, day 14, CTG): 96.4 µM
- IC50 ([2]; 504 h, Breast Cancer Sample 1, Normal Organoid, day 21, CTG): 0.955 µM
- IC50 ([2]; 504 h, Breast Cancer Sample 2, Normal Organoid, day 21, CTG): 9.53 µM
- IC50 ([2]; 504 h, Breast Cancer Sample 3, Normal Organoid, day 21, CTG): 10.2 µM
- IC50 ([3]; 168 h, Breast Cancer Sample 1, Tumor Organoid, day 7, CTG): 902 µM
- IC50 ([3]; 168 h, Breast Cancer Sample 2, Tumor Organoid, day 7, CTG): 976 µM
- IC50 ([3]; 168 h, Breast Cancer Sample 3, Tumor Organoid, day 7, CTG): 938 µM
- IC50 ([3]; 336 h, Breast Cancer Sample 1, Tumor Organoid, day 14, CTG): 117 µM
- IC50 ([3]; 336 h, Breast Cancer Sample 2, Tumor Organoid, day 14, CTG): 1060 µM
- IC50 ([3]; 336 h, Breast Cancer Sample 3, Tumor Organoid, day 14, CTG): 92.2 µM
- IC50 ([3]; 504 h, Breast Cancer Sample 1, Tumor Organoid, day 21, CTG): 125 µM
- IC50 ([3]; 504 h, Breast Cancer Sample 2, Tumor Organoid, day 21, CTG): 97.6 µM
- IC50 ([3]; 504 h, Breast Cancer Sample 3, Tumor Organoid, day 21, CTG): 9.55 µM
- Viability of organoids (CTG assay) ([3]; breast cancer organoids): significantly decreased the viability of organoids
- Response of breast cancer PDOs to treatment ([3]; few breast cancer PDOs): resistant
- IC50 ([4]; 168 h, Ovarian Cancer Sample 1, Tumor Organoid, day 7, CTG): 847 µM
- IC50 ([4]; 168 h, Ovarian Cancer Sample 2, Tumor Organoid, day 7, CTG): 2450 µM
- IC50 ([4]; 168 h, Ovarian Cancer Sample 3, Tumor Organoid, day 7, CTG): 987 µM
- IC50 ([4]; 336 h, Ovarian Cancer Sample 1, Tumor Organoid, day 14, CTG): 877 µM
- IC50 ([4]; 336 h, Ovarian Cancer Sample 2, Tumor Organoid, day 14, CTG): 2210 µM
- IC50 ([4]; 336 h, Ovarian Cancer Sample 3, Tumor Organoid, day 14, CTG): 1040 µM
- IC50 ([4]; 504 h, Ovarian Cancer Sample 1, Tumor Organoid, day 21, CTG): 1.02 µM
- IC50 ([4]; 504 h, Ovarian Cancer Sample 2, Tumor Organoid, day 21, CTG): 1930 µM
- IC50 ([4]; 504 h, Ovarian Cancer Sample 3, Tumor Organoid, day 21, CTG): 98.1 µM
- Viability of organoids (CTG assay) ([4]; ovarian cancer organoids): significantly decreased the viability of organoids
- Calcium oscillation/contraction pattern sensitivity, donor comparison [5]: Ovarian cancer patient’s cardiomyocytes was found more sensitive to Doxorubicin followed by breast cancer patient and healthy donor

— PMC10362580, “Patient-derived organoids for precision oncology: a platform to facilitate clinical decision making” (BMC Cancer, 2023)
